Measured values published in patent US20250387425A1 (ANDA BIOLOGY MEDICINE DEVELOPMENT (SHENZHEN) CO., LTD., priority 2022, published 2025).

Legend:
MX1 = assay: Knock down of MX1 in PBMCs by siRNA, qPCR and tumor killing; assay type: cell-based, human; details: MX1 depletion by siRNA vs negative control oligonucleotides
Procedure: PBMCs were cultured in X-VIVO 15 medium (Lonza) supplemented with 10% Fetal Bovine Serum (Gemini), Penicillin-Streptomycin (Gibco), Antibiotic-Antimycotic (Gibco), 20 ng/ml recombinant human IL-7 (R&D), 50 U/ml recombinant human IL-2 (R&D) for one week. Then, TransIT-TKO kit (Mirus) was used to transient transfect MX1 siRNA into PBMCs. After 3 days of culture at 37° C., PBMCs were collected. A part of PBMCs co-incubated with tumor cells to test the killing effect of PBMCs after siRNA interference. The other part of PBMCs was extracted RNA with AllPrep DNA/RNA Kits (QIAGEN) and reverse transcription to cDNA with PrimeScript RT reagent Kit (Takara), and then used NovoStart SYBR qPCR SuperMix Plus (Novoprotein) performs qPCR to verify the efficiency of siRNA interference. The relative expressions of MX1 gene at the mRNA level was calculated by the 2-ΔΔCt method. GAPDH was used as a housekeeping gene.

[1] = test system: neoantigen-specific T-cell clones in blood; assay: DNA-barcoded neoantigen-peptide-MHC tetramers with single-cell TCR sequencing (patient P6); assay type: cell-based, human; details: blood of patient P6

Row | Substance | anti-tumor ability of immune cells in PBMC (MX1) | tetramer-positive T-cell clones (peptide-MHC HLA-A*11:01 tetramer) [1]
1 | 5′-GCTTTGTGAATTACAGGACAT-3′ (only one strand given, further chemistry not given here) [MX1 siRNA, siRNA transiently transfected into PBMCs to knock down MX1] | remarkably impaired | –
2 | YVECGKAFK [neoantigen-peptide-85-epitopel] | – | No tetramer-positive T-cell clones
